Reference: patent US8791116B2, “Myosin light chain kinase inhibitor compounds, compositions and related methods of use” (Northwestern University, priority 2006, dated 2014)
Entries after “also recorded” stand apart in the source; their conditions may differ.

How the values were obtained:
protein kinase A (PKA) = protein kinase A (PKA) (Homo sapiens, UniProt P17612); assay: Kinase inhibitory activity against protein kinase A; format: biochemical; conditions: read-out: PKA (μM), in vitro inhibition of kinases
Procedure: (§1) MLCK inhibitory activity screens were done by incubation with 20 μM peptide substrate ([…]), 200 μM ATP and [^32P]-ATP (2.5 μCi per reaction) in assay buffer (50 mM HEPES, pH 7.5 with KOH, 5 mM MgCl2, 0.15 M KCl, 0.015 M NaCl, 1 mM DTT) with 0.1 mM CaCl2 and 1 μM calmodulin (New England Biolabs, MA). [T. J. Lukas, S. Mirzoeva, U. Slomczynska and D. M. Watterson, J. Med. Chem. 42 (1999) 910-9.] Reactions were initiated by addition of MLCK protein and incubated for 20 min at 25° C. Reactions were spotted onto P-81 paper (Whatman, Clifton, N.J.), washed with 75 mM H3PO4 and 95% EtOH, and quantified by scintillation counting in EcoScintO (National Diagnostics, Atlanta, Ga.). Testing of compounds for kinase inhibitory activity against the structurally and functionally related kinases death-associated protein kinase (DAPK) and the signal transduction pathway relevant kinases protein kinase A (PKA) and protein kinase C (PKC) was performed as described by using the corresponding peptide substrates and assay conditions. [[…]. Guo, […]. Bourguignon, […]. Van Eldik and D. M. Watterson, J. Med. Chem 45 (2002) 563-6; A. M. Schumacher, […] and D. M. Watterson, Biochemistry 43 (2004) 8116-24; […]. Schumacher and D. M. Watterson, Pharmacol Ther 93 (2002) 217-24; […]. Schumacher, C. Weiss, M. Egli and D. M. Watterson, J. Biol. Chem. 276 (2001) 38956-65; D. M. Watterson, S. Mirzoeva, L. Guo, […]. Bourguignon, […] and L. J. Van Eldik, Neurochem Int. 39 (2001) 459-68.]

[1] = target: death-associated protein kinase (DAPK) (Homo sapiens, UniProt P53355); assay: Kinase inhibitory activity against death-associated protein kinase; format: biochemical; conditions: read-out: DAPK (μM), in vitro inhibition of kinases
Procedure: as §1

protein kinase C (PKC) = assay: Kinase inhibitory activity against protein kinase C; format: biochemical; conditions: read-out: PKC (μM), in vitro inhibition of kinases
Procedure: MLCK inhibitory activity screens were done by incubation with 20 μM peptide substrate (KKRPQRATSNVFAM-NH2), 200 μM ATP and [^32P]-ATP (2.5 μCi per reaction) in assay buffer (50 mM HEPES, pH 7.5 with KOH, 5 mM MgCl2, 0.15 M KCl, 0.015 M NaCl, 1 mM DTT) with 0.1 mM CaCl2 and 1 μM calmodulin (New England Biolabs, MA). [T. J. Lukas, S. Mirzoeva, U. Slomczynska and D. M. Watterson, J. Med. Chem. 42 (1999) 910-9.] Reactions were initiated by addition of MLCK protein and incubated for 20 min at 25° C. Reactions were spotted onto P-81 paper (Whatman, Clifton, N.J.), washed with 75 mM H3PO4 and 95% EtOH, and quantified by scintillation counting in EcoScintO (National Diagnostics, Atlanta, Ga.). Testing of compounds for kinase inhibitory activity against the structurally and functionally related kinases death-associated protein kinase (DAPK) and the signal transduction pathway relevant kinases protein kinase A (PKA) and protein kinase C (PKC) was performed as described by using the corresponding peptide substrates and assay conditions. [S. Mirzoeva, A. Sawkar, M. Zasadzki, L. Guo, A. V. Velentza, V. Dunlap, J. J. Bourguignon, H. Ramstrom, J. Haiech, L. J. Van Eldik and D. M. Watterson, J. Med. Chem 45 (2002) 563-6; A. M. Schumacher, J. P. Schavocky, A. V. Velentza, S. Mirzoeva and D. M. Watterson, Biochemistry 43 (2004) 8116-24; A. V. Velentza, A. M. Schumacher and D. M. Watterson, Pharmacol Ther 93 (2002) 217-24; A. V. Velentza, A. M. Schumacher, C. Weiss, M. Egli and D. M. Watterson, J. Biol. Chem. 276 (2001) 38956-65; D. M. Watterson, S. Mirzoeva, L. Guo, A. Whyte, J. J. Bourguignon, M. Hibert, J. Haiech and L. J. Van Eldik, Neurochem Int. 39 (2001) 459-68.]

MLCK = MLCK (Homo sapiens, UniProt Q15746); assay: MLCK inhibitory activity screen (32P-ATP peptide substrate phosphorylation); format: biochemical; conditions: for IC50: 20 μM peptide substrate, 200 μM ATP, 20 min at 25° C., read-out: MLCK (μM), in vitro inhibition of kinases; for selectivity for MLCK over related protein kinases (in words): compared to DAPK, PKC and PKA
Procedure: as §1

[2] = In vitro metabolic stability with human liver microsomes; format: in vitro ADME; conditions: 5 μM compound, 10 and 30 min at 37° C., HPLC
Procedure: A standard screening of compounds for in vitro metabolic stability with human liver microsomes was done at 5 μM of compound using commercially available, calibrated human liver microsomes (BD Biosciences, Bedford, Mass.) and an NADPH-regenerating system. [D. Ackley, K. Rockich and T. Baker. in (Caldwell, Z. Y. a. G. W., ed.) Methods in pharmacology and toxicology optimization in drug discovery: in vitro methods, Humana Press Inc., Totowa, N.J. 2004, pp. 151-62.] Briefly, reaction mixtures were prepared in 0.1 M potassium phosphate buffer and contained 1.6 mg/ml microsomal protein, 5 μM test compound, 1.3 mM NADPH, 3.3 mM MgCl2, 0.4 U/ml glucose-6-phosphate dehydrogenase, and 3.3 mM glucose-6-phosphate in a total volume of 300 μl. Reactions were incubated for 10 and 30 minutes at 37° C. and halted by addition of cold acetonitrile. The mixture was centrifuged at 10000 g for 10 min and 20 μl of supernatant was analyzed by HPLC to quantify the percentage of the initial amount of compound remaining after incubation. The HPLC mobile phase consisted of 5% acetonitrile in water as reagent A and 80% acetonitrile/0.08% formic acid/water as reagent B at a flow rate of 0.2 ml/min. The gradient consisted of the following variations in % B: begin with % B at 0 for 2 min, 0-100% from 2 to 22 min, isocratic until 24 min. Peak quantification was done based upon absorption measurements at 260 nm relative to a standard curve obtained by serial dilutions of known amounts of compounds.

[3] = test system: LPS induced vascular leak in the lungs; assay: Bacterial toxin (LPS)-induced pulmonary vascular leak, Evans blue dye in lung; format: in vivo; conditions: mice, LPS 10 mg/kg i.p., compound 5 mg/kg i.p., 24 h
Procedure: Adult (20-30 g) female C57B1/6 mice were obtained from a commercial vendor (Harlan, Indianapolis, Ind.). The generation and characterization of the MLCK210 KO mouse strain was previously described. [M. S. Wainwright, J. Rossi, J. Schavocky, S. Crawford, D. Steinhorn, […]. Jia, […]. Van Eldik and D. M. Watterson, Proc. Natl. Acad. Sci. USA 100 (2003) 6233-8.] All animal procedures were performed in accordance with relevant National Institutes of Health guidelines and approved by the Institutional Animal Care and Use Committee of Northwestern University. Pulmonary vascular leak after injurious endotoxin exposure was examined essentially as previously described, above, except using the increase in Evans blue dye in the lung as a quantitative end point. […] The levels of Evans blue in the serum and the tissue supernatant were then determined by measuring the absorbance at 620 nm. The reading at 620 nm (E620) was corrected for the presence of contaminating heme pigments in the samples by measuring the absorbance at 740 nm (E740) and using the correction formula E620=E620-(1.426×E740+0.030). The amount of Evans blue in the samples was then calculated using a standard curve obtained with known amounts of Evans blue. The results were normalized by considering the mean level of Evans blue measured in LPS-treated mice as 100%.

Sequence of MLCK (Q15746 whole entry): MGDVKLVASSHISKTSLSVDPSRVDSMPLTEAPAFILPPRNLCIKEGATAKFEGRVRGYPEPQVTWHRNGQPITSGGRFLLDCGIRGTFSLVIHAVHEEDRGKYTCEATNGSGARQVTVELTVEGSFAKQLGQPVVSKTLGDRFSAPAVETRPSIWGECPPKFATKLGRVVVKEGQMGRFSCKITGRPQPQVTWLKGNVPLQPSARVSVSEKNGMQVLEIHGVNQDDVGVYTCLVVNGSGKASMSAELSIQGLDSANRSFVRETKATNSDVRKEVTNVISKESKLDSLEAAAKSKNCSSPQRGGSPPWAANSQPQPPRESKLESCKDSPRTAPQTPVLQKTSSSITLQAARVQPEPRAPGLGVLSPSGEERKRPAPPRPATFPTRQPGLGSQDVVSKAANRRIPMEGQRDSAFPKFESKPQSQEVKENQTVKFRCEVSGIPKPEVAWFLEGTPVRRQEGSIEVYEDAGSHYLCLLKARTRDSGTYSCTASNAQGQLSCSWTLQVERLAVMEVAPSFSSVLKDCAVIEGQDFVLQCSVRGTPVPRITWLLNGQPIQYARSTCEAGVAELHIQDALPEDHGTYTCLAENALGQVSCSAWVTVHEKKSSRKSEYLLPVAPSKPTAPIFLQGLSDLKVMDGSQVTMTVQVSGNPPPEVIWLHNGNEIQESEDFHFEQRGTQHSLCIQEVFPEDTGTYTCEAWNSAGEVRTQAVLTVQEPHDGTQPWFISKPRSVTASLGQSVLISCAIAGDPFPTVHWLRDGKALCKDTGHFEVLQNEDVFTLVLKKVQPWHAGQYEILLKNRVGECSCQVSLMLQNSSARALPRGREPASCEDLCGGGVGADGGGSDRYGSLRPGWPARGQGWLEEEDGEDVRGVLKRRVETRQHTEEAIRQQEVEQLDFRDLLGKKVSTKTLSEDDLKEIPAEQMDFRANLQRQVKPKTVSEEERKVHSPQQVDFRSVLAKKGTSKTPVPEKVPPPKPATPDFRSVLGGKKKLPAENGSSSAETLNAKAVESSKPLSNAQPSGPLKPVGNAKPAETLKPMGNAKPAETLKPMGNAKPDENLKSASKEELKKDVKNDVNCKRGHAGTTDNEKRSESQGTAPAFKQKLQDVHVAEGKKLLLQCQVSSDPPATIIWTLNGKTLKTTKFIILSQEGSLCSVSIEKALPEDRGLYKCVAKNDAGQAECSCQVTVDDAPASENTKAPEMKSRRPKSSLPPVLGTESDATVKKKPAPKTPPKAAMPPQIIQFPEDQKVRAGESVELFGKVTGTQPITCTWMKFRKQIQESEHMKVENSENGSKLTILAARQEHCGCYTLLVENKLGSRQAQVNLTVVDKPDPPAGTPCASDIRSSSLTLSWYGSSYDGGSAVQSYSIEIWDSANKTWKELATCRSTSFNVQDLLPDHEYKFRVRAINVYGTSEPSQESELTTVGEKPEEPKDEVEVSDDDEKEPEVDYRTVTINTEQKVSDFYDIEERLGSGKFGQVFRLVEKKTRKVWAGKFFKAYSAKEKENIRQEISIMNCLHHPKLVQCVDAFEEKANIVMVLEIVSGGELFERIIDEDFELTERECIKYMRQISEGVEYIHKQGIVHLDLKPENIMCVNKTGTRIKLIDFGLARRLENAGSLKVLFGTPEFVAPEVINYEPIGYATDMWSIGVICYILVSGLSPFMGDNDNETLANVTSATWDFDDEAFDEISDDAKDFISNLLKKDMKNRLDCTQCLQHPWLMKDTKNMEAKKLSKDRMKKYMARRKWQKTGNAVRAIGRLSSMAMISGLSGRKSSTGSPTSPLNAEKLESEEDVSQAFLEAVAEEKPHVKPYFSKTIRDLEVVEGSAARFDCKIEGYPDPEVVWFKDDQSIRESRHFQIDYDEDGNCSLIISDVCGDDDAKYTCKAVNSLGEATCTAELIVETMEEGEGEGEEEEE
Sequence of death-associated protein kinase (DAPK) (P53355 1-285 limits assumed, species assumed): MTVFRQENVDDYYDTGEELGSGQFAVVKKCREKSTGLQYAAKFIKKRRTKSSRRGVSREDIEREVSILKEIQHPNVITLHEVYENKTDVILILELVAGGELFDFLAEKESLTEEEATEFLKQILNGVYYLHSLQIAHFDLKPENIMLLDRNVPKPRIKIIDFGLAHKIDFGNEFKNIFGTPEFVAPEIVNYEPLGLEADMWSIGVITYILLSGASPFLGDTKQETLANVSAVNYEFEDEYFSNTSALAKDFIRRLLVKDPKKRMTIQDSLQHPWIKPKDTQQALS

| Compound | IC50 (protein kinase A (PKA)) [µM] | IC50 [1] [µM] | IC50 (protein kinase C (PKC)) [µM] | IC50 (MLCK) [µM] | selectivity for MLCK over related protein kinases (in words) (MLCK) | amount of compound remaining after incubation with human liver microsomes [2] | MLCK inhibitory activity relative to parent compound (in words) (MLCK; in vitro, versus compound 6) | level of Evans blue dye in lung tissue (pulmonary vascular leak) [3] | amount of compound remaining after incubation with human liver microsomes ([2]; listed as compound 6) | selectivity for MLCK versus DAPK (MLCK; ratio from Table 1) |
| --- | --- | --- | --- | --- | --- | --- | --- | --- | --- | --- |
| N=c1ccc(-c2ccccc2)nn1CCCCCCCCCCC(=O)NCCc1c[nH]cn1 [Compound 5, N-(2-(1H-imidazol-4-yl)ethyl)-11-(6-imino-3-phenylpyridazin-1(6H)-yl)undecanamide] | > 1000 | 271 | 166 | 6.3 | more selective than compounds 1 or 2 | – | – | – | – | – |
| N=c1ccc(-c2ccccc2)nn1CCCCCCCCCCC(=O)NCCC1CCCC1 [Compound 10, N-(2-cyclopentylethyl)-11-(6-imino-3-phenylpyridazin-1(6H)-yl)undecanamide] | > 1000 | 206 | 68 | 2.5 | selective for MLCK | significantly lower than compound 6; also recorded: significantly different (***p<0.001) at 10 and 30 min compared to zero min | more active in vitro than the parent compound 6 | – | – | – |
| CN1CCCC1CCNC(=O)CCCCCCCCCCn1nc(-c2ccccc2)ccc1=N (stereo not drawn) [Compound 6, 11-(6-imino-3-phenylpyridazin-1(6H)-yl)-N-(2-(1-methylpyrrolidin-2-yl)ethyl)-undecanamide] | > 1000 | > 1000 | 414 | 13.3 | highly selective for MLCK; also recorded: selective for MLCK compared to closely related protein kinases | stable | – | efficacious in vivo to reduce LPS-induced pulmonary vascular leak; also recorded: significantly lower (*p<0.05) levels of dye | did not decrease up to 30 minutes of incubation; also recorded: The majority of compound 6 (filled bar) remains after 10 and 30 min incubation times | over 76 times |
